Laboratory results published in US20230201149A1, “METHODS OF ANTIPATHOGENIC TREATMENT” (priority 2020, published 2023).
Like-named read-outs stand apart in the source and are kept apart here.

Tests used:
[1] = elderly subjects, six months of 45 mg zinc/day as a gluconate; cited from earlier work
severe COVID patients = conditions: cited from earlier work
[2] = Alzheimer patients, 200 microg/day, cited from earlier work
ARDS patients = conditions: intravenous, P<0.001; cited from earlier work
COVID-19 patients [3] = conditions: 50 treated patients, cited from earlier work
[4] = in vivo, cited from earlier work
COVID-19 patients [5] = conditions: cited from earlier work; for inflammatory markers (CRP and ferritin): during IV N-acetylcysteine administration
COVID-infected cells = conditions: cited from earlier work
[6] = system: COVID-19 coronavirus in human lung cells; assay: Antiviral potency in human lung cells; type: cell-based
Protocol: Earlier research of Nafamostat indicated it would not have sufficient concentration in the plasma to cause death of the virus. This was based on trialing drugs in monkey kidney cells. It was determined it would be more realistic to trial the drugs in human lung cells. The results were dramatic in that vastly different effects resulted.

[7] = system: COVID-19 coronavirus in human lung cells; conditions: read-out: 50% kill rate IC50; cited from earlier work
COVID-19 = conditions: cited from earlier work
SARS-Cov-2 [8] = conditions: replication of SARS-Cov-2, cited from earlier work
SARS-Cov-2 [9] = assay: Inhibition of replication of SARS-Cov-2; type: cell-based

[Zn] [Zinc]
concentration of plasma hsCRP, IL-6, MCP-1, VCAM-1, secretory phospholipase A2, MDA+HAE [1]: decreases

Heparin
benefit in less severe cases (severe COVID patients; less severe cases): no benefit
death rate (severe COVID patients; most severe cases, reduced from 64%): 40%

[Se] [selenium]
serum high sensitivity C-reactive protein ([2]; P<0.001): reduced
total glutathione ([2]; P=0.001): significantly increased
drop in IL-1beta, R value (ARDS patients): −0.624
drop in IL-6, R value (ARDS patients): 0.642

C=C1CC[C@H](O)C/C1=C/C=C1\CCC[C@]2(C)[C@@H]([C@H](C)CCCC(C)(C)O)CC[C@@H]12 [calcifediol]
patients requiring admission to the ICU (COVID-19 patients [3]; oral, untreated 50%): 2%
deaths (COVID-19 patients [3]): none died

CC(=O)N[C@@H](CS)C(=O)O [N-acetylcysteine]
bioavailability ([4]; po): 6-10%
half-life, reduced N-acetylcysteine [4]: about 2 h
half-life, total N-acetylcysteine [4]: about 6 h
bilirubin (total and direct) (COVID-19 patients [5]; G6PD-deficient patient, IV NAC 600 mg every 12 h for six days): sustained reduction
ALT (COVID-19 patients [5]; G6PD-deficient patient, after IV NAC 30,000 mg over 24 h for two days, peak before 263): 100 U/L
AST (COVID-19 patients [5]; G6PD-deficient patient, after IV NAC 30,000 mg over 24 h for two days, peak before 338): 62 U/L
NLR (COVID-19 patients [5]; G6PD-deficient patient, sustained after the first dose): decrease
inflammatory markers (CRP and ferritin) (COVID-19 patients [5]): significant overall reduction
inflammatory markers (CRP and ferritin) (COVID-19 patients [5]; listed as NAC): significantly reduced
patients eventually discharged (COVID-19 patients [5]; of ten patients): Eight
lung functions (COVID-19 patients [5]; ten respirator-dependent COVID-19 patients): improved

N=C(N)c1ccc2cc(OC(=O)c3ccc(N=C(N)N)cc3)ccc2c1 [Nafamostat]
COVID-induced cytopathogenic effect (CPE) (COVID-infected cells): inhibits
effect on the virus replication cycle (COVID-infected cells; high levels of double-strand RNA in treated infected cells): limited effects
decrease of IC50, human lung cells vs monkey kidney cells [6]: 6000 fold
potency relative to Remdesivir ([6]; human lung cells): 600 fold
IC50 [7]: 2.2 nM

Aprotinin
increase of effectiveness by omeprazole (COVID-19): 2.7 fold

Cc1c(O)cccc1C(=O)N[C@@H](CSc1ccccc1)[C@H](O)CN1C[C@H]2CCCC[C@H]2C[C@H]1C(=O)NC(C)(C)C [nelfinavir, Nelfinavir]
EC50 (SARS-Cov-2 [8]; read-out: effective concentration for 50% inhibition (EC50)): 1130 nM
EC90 (SARS-Cov-2 [8]; read-out: effective concentration for 90% inhibition (EC90)): 1760 nM
trough and peak serum concentration relative to EC50 (SARS-Cov-2 [9]): three to six times higher
